For 27 compounds, IC50 results are on record in patent US8183239B2, “Substituted piperazines and piperidines as modulators of the neuropeptide Y2 receptor” (Janssen Pharmaceutica NV, priority 2005, dated 2012).

The target of one assay is T1, Y2 receptors (Homo sapiens, UniProt P49146).
T1 construct: endogenous in cells; host or cells: KAN-Ts cells (membranes)
T1 sequence (P49146 1-381): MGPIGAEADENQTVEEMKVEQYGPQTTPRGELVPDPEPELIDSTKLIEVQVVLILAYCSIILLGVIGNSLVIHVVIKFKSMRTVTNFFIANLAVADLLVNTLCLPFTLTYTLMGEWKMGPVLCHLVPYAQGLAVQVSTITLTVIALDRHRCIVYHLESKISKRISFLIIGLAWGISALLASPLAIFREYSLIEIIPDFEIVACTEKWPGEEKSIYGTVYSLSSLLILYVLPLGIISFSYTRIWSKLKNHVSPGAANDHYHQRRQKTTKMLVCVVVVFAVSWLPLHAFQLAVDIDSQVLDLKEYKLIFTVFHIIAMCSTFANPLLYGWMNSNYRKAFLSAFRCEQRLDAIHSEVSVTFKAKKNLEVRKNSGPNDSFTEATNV
Briefly: Radioligand binding assay ([125I]PYY, KAN-Ts cell membranes). As to conditions: Table 1, [125I]PYY 80 pM, average of results, read-out: IC50. Here is the method: Radioligand Binding Assay
KAN-Ts endogenously expressing Y2 receptors were used for the radioligand binding assay. Cells were grown to confluence on 150 cm^2 tissue culture plates, washed with phosphate-buffered saline (PBS), and scraped into 50 mL tubes. After centrifugation, the supernatant was aspirated, and the pellets frozen and stored at −80° C. Thawed pellets were homogenized with a polytron tissue grinder for 15 sec in 20 mM Tris-HCl, 5 mM EDTA. The homogenate was centrifuged at 800×g for 5 min and the collected supernatant was recentrifuged at 25000×g for 25 min. The resulting pellet was resuspended in binding buffer (20 mM HEPES, 120 mM NaCl, 0.22 mM KH2PO4, 1.3 mM CaCl2, 0.8 mM MgSO4). Membranes were incubated with [^125I]PYY (80 pM) in the presence or absence of test compound for 1 h at rt. The reaction was stopped by filtration through GF/C filter plates pre-soaked in 0.3% polyethylenimine and subsequently washed with Tris 50 mM, 5 mM EDTA buffer. Plates were dried for 1 h in a 55° C. oven, scintillation fluid was added and the radioactivity was counted in a Packard TopCount. Specific binding to the NPY receptor subtypes was determined by radioactivity that was bound in the presence of […]. Each binding experiment was repeated three to eight times, each in duplicate. IC50 values (i.e. concentration of unlabelled peptide or antagonist required to compete for 50% of specific binding to the radioligand) were calculated using the GraphPad Prism software (GraphPad Software Inc., San Diego Calif.) with a fit to a sigmoidal dose response curve. Data for compounds tested are presented in Tables 1 and 2 as an average of results obtained.
As for `CCC(CC)C(=O)Nc1ccc(N2CCN(C(C(=O)N3CCCC3)c3ccccc3)CC2)c(F)c1` (stereo not drawn) [Example 1, 2-Ethyl-N-{3-fluoro-4-[4-(2-oxo-1-phenyl-2-pyrrolidin-1-yl-ethyl)-piperazin-1-yl]-phenyl}-butyramide], the half-inhibitory concentration (IC50) – broadly, the concentration that gives 50% inhibition – was found to be 58 nM.

For `CCC(CC)C(=O)Nc1ccc(N2CCN(Cc3ccccc3C(=O)OC)CC2)c(F)c1` [Example 2, 2-{4-[4-(2-Ethyl-butyrylamino)-2-fluoro-phenyl]-piperazin-1-ylmethyl}-benzoic acid methyl ester], the IC50 turned out to be 2350 nM.

Consider `CCC(CC)C(=O)Nc1ccc(N2CCN(Cc3cccc(C(=O)N4CCOCC4)c3)CC2)c(F)c1` [Example 3, 2-Ethyl-N-(3-fluoro-4-{4-[3-(morpholine-4-carbonyl)-benzyl]-piperazin-1-yl}-phenyl)-butyramide], for which the 50% inhibitory concentration (IC50) is 560 nM.

For `CCC(CC)C(=O)Nc1ccc(N2CCN(Cc3ccccc3C(=O)N(CC)CC)CC2)c(F)c1` [Example 4, N,N-Diethyl-2-{4-[4-(2-ethyl-butyrylamino)-2-fluoro-phenyl]-piperazin-1-ylmethyl}-benzamide], the IC50 came out at 370 nM.

`CCC(CC)C(=O)Nc1ccc(N2CCN(Cc3ccccc3C(=O)N3CCOCC3)CC2)c(F)c1` [Example 5, 2-Ethyl-N-(3-fluoro-4-{4-[2-(morpholine-4-carbonyl)-benzyl]-piperazin-1-yl}-phenyl)-butyramide]: the IC50 came to 1900 nM.

Turning to `CCC(CC)C(=O)Nc1ccc(N2CCN(C(C(=O)N(CC)CC)c3ccccc3)CC2)c(F)c1` (stereo not drawn) [Example 6, N-{4-[4-(Diethylcarbamoyl-phenyl-methyl)-piperazin-1-yl]-3-fluoro-phenyl}-2-ethyl-butyramide], the IC50 is 71 nM.

For the compound `CCNC(=O)C(c1ccccc1)N1CCN(c2ccc(NC(=O)C(CC)CC)cc2F)CC1` (stereo not drawn) [Example 7, 2-Ethyl-N-{4-[4-(ethylcarbamoyl-phenyl-methyl)-piperazin-1-yl]-3-fluoro-phenyl}-butyramide], the IC50 turned out to be 377 nM.

Consider `CCN(CC)C(=O)C(c1ccccc1)C1CCN(c2ccc(NC(=O)Nc3c(C)noc3C)cc2F)CC1` (stereo not drawn) [Example 8, 2-(1-{4-[3-(3,5-Dimethyl-isoxazol-4-yl)-ureido]-2-fluoro-phenyl}-piperidin-4-yl)-N,N-diethyl-2-phenyl-acetamide], for which the IC50 worked out at 10 nM.

As to `CCN(CC)C(=O)C(c1ccccc1)C1CCN(c2ccc(NC(=O)Cc3c(C)noc3C)cc2F)CC1` (stereo not drawn) [Example 9, 2-(1-{4-[2-(3,5-Dimethyl-isoxazol-4-yl)-acetylamino]-2-fluoro-phenyl}-piperidin-4-yl)-N,N-diethyl-2-phenyl-acetamide], the concentration for half-maximal inhibition (IC50) amounted to 14 nM.

With `CCC(CC)C(=O)Nc1ccc(N2CCC(C(C(=O)N(CC)CC)c3ccccc3)CC2)c(F)c1` (stereo not drawn) [Example 11, N-{4-[4-(Diethylcarbamoyl-phenyl-methyl)-piperidin-1-yl]-3-fluoro-phenyl}-2-ethyl-butyramide], the IC50 came to 12 nM.

For `CCN(CC)C(=O)C(c1ccccc1)C1CCN(c2ccc(NC(=O)c3c(C)noc3C)cc2F)CC1` (stereo not drawn) [Example 12, 3,5-Dimethyl-isoxazole-4-carboxylic acid {4-[4-(diethylcarbamoyl-phenyl-methyl)-piperidin-1-yl]-3-fluoro-phenyl}-amide], the IC50 worked out at 26 nM.

As to `CCNC(=O)C(c1ccccc1)C1CCN(c2ccc(NC(=O)Cc3c(C)noc3C)cc2F)CC1` (stereo not drawn) [Example 13, 2-(1-{4-[2-(3,5-Dimethyl-isoxazol-4-yl)-acetylamino]-2-fluoro-phenyl}-piperidin-4-yl)-N-ethyl-2-phenyl-acetamide], the concentration for half-maximal inhibition (IC50) was determined as 58 nM.

As to `CCNC(=O)C(c1ccccc1)C1CCN(c2ccc(NC(=O)C(CC)CC)cc2F)CC1` (stereo not drawn) [Example 14, 2-Ethyl-N-{4-[4-(ethylcarbamoyl-phenyl-methyl)-piperidin-1-yl]-3-fluoro-phenyl}-butyramide], the IC50 was found to be 112 nM.

Consider `CCNC(=O)C(c1ccccc1)C1CCN(c2ccc(NC(=O)Nc3c(C)cccc3C)cc2F)CC1` (stereo not drawn) [Example 15, 2-(1-{4-[3-(2,6-Dimethyl-phenyl)-ureido]-2-fluoro-phenyl}-piperidin-4-yl)-N-ethyl-2-phenyl-acetamide], for which the IC50 amounted to 162 nM.

Take `CCCC(CCC)C(=O)Nc1ccc(N2CCC(C(C(=O)NCC)c3ccccc3)CC2)c(F)c1` (stereo not drawn) [Example 16, 2-Propyl-pentanoic acid {4-[4-(ethylcarbamoyl-phenyl-methyl)-piperidin-1-yl]-3-fluoro-phenyl}-amide]: the IC50 was 280 nM.

Turning to `CCNC(=O)C(c1ccccc1)C1CCN(c2ccc(NC(=O)NCc3ccc(F)cc3)cc2F)CC1` (stereo not drawn) [Example 17, N-Ethyl-2-(1-{2-fluoro-4-[3-(4-fluoro-benzyl)-ureido]-phenyl}-piperidin-4-yl)-2-phenyl-acetamide], the IC50 worked out at 1000 nM.

Regarding `CCNC(=O)C(c1ccccc1)C1CCN(c2ccc(NC(=O)C(C)C)cc2)CC1` (stereo not drawn) [Example 18, N-{4-[4-(Ethylcarbamoyl-phenyl-methyl)-piperidin-1-yl]-phenyl}-isobutyramide], the IC50 came out at 4000 nM.

In the case of `CCNC(=O)C(c1ccccc1)C1CCN(c2ccc(NC(=O)CC3CCCCC3)cc2F)CC1` (stereo not drawn) [Example 19, 2-{1-[4-(2-Cyclohexyl-acetylamino)-2-fluoro-phenyl]-piperidin-4-yl}-N-ethyl-2-phenyl-acetamide], the IC50 is 10000 nM.

For the compound `CCN(CC)C(=O)C(c1ccccc1)N1CCN(c2ccc(NC(=O)Nc3c(C)noc3C)cc2F)CC1` (stereo not drawn) [Example 20, 2-(4-{4-[3-(3,5-Dimethyl-isoxazol-4-yl)-ureido]-2-fluoro-phenyl}-piperazin-1-yl)-N,N-diethyl-2-phenyl-acetamide], the IC50 came to 16 nM.

Turning to `CCN(CC)C(=O)C(c1ccccc1)N1CCN(c2ccc(NC(=O)Cc3c(C)noc3C)cc2F)CC1` (stereo not drawn) [Example 21, 2-(4-{4-[2-(3,5-Dimethyl-isoxazol-4-yl)-acetylamino]-2-fluoro-phenyl}-piperazin-1-yl)-N,N-diethyl-2-phenyl-acetamide], the IC50 came to 20 nM.

For `CCN(CC)C(=O)C(c1ccccc1)N1CCN(c2ccc(NC(=O)c3c(C)noc3C)cc2F)CC1` (stereo not drawn) [Example 22, 3,5-Dimethyl-isoxazole-4-carboxylic acid {4-[4-(diethylcarbamoyl-phenyl-methyl)-piperazin-1-yl]-3-fluoro-phenyl}-amide], the IC50 stood at 26 nM.

For `CCNC(=O)C(c1ccccc1)N1CCN(c2ccc(NC(=O)Nc3c(C)noc3C)cc2F)CC1` (stereo not drawn) [Example 23, 2-(4-{4-[3-(3,5-Dimethyl-isoxazol-4-yl)-ureido]-2-fluoro-phenyl}-piperazin-1-yl)-N-ethyl-2-phenyl-acetamide], the IC50 was determined as 42 nM.

Regarding `CCNC(=O)C(c1ccccc1)N1CCN(c2ccc(NC(=O)Cc3c(C)noc3C)cc2F)CC1` (stereo not drawn) [Example 24, 2-(4-{4-[2-(3,5-Dimethyl-isoxazol-4-yl)-acetylamino]-2-fluoro-phenyl}-piperazin-1-yl)-N-ethyl-2-phenyl-acetamide], the IC50 turned out to be 176 nM.

As to `CCNC(=O)C(c1ccccc1)N1CCN(c2ccc(NC(=O)Nc3cc(C)ccc3C)cc2F)CC1` (stereo not drawn) [Example 25, 2-(4-{4-[3-(2,5-Dimethyl-phenyl)-ureido]-2-fluoro-phenyl}-piperazin-1-yl)-N-ethyl-2-phenyl-acetamide], the IC50 worked out at 260 nM.

Still in this assay, the particulars now being: Table 2, [125I]PYY 80 pM, average of results, read-out: IC50.
`CCC(CC)C(=O)Nc1ccc(N2CCN(C(C(=O)OC)c3ccccc3)C(C(=O)OC)C2)c(F)c1` (single isomer, unassigned; diastereomer 1) [Example 269, 4-[4-(2-Ethyl-butyrylamino)-2-fluoro-phenyl]-1-(methoxycarbonyl-phenyl-methyl)-piperazine-2-carboxylic acid methyl ester (diastereomer 1)]: the IC50 was 2300 nM.

Take `CCC(CC)C(=O)Nc1ccc(N2CCN(C(C(=O)OC)c3ccccc3)C(C(=O)OC)C2)c(F)c1` (single isomer, unassigned; diastereomer 2) [Example 265, 4-[4-(2-Ethyl-butyrylamino)-2-fluoro-phenyl]-1-(methoxycarbonyl-phenyl-methyl)-piperazine-2-carboxylic acid methyl ester (diastereomer 2)]: the IC50 was found to be 600 nM.

Turning to `CC[C@H](C)C(=O)Nc1ccc(N2CCC(C(C(=O)N(CC)CC)c3ccccc3)CC2)c(C#N)c1` (stereo in doubt) [Example 218, N-{3-Cyano-4-[4-(diethylcarbamoyl-phenyl-methyl)-piperidin-1-yl]-phenyl}-2-methyl-butyramide], the IC50 came out at 30 nM.
